Literature values in US8211015B2 (priority 2006, dated 2012).

Conditions: in vivo

Row | SMILES | analgesic effect on labor pain
1 | CCOC(=O)C1(c2ccccc2)CCN(C)CC1 [meperidine] | more sedation than actual analgesia
2 | CN1CC[C@]23c4c5ccc(O)c4O[C@H]2[C@@H](O)C=C[C@H]3[C@H]1C5 [morphine] | more sedation than actual analgesia
